Measured values reported in paper PMC10448176, “Arsenite oxidase in complex with antimonite and arsenite oxyanions: Insights into the catalytic mechanism” (The Journal of Biological Chemistry, 2023).
Like-named read-outs stand apart in the source and are kept apart here.

Target: Af Aio (arsenite oxidase, AioA/AioB) (Alcaligenes faecalis, UniProt Q7SIF4)
Details: Mo active site of AioA, covalent

SMILES	X-ray crystallography, crystal soak (10 mM sodium arsenite soak of ferricyanide-oxidized crystals, mu-oxo bridged to Mo, two structures: As_d (8CH9, two oxo bridges) and As_c (8CFF, one bridge, possible))	X-ray crystallography, crystal soak (10 mM potassium antimonyl tartrate soak of ferricyanide-oxidized crystals, one oxo bridge to Mo, Sb with four further oxo/hydroxo groups, turnover intermediate)
O[As](O)O [As, arsenite]	the As ion is bound to Mo via one μ-oxo bridge (Mo-Ox-As)	
[OH][Sb]([OH])[OH] [Sb, antimonite]		the Sb atom is sitting vertically to Mo and coordinated to the oxo ligand
